According to PubChem BioAssay AID179 (DTP/NCI, 2004):
Active and inactive are the calls of the source.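 How the source made its calls: active means compounds giving half or more protection of infected cells from virus-caused growth loss, again on retest; inactive means the rest.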

System: CEM cells HIV-1 protection, formazan growth assay
Experiment: NCI AIDS Antiviral Assay
Conditions: for IC50: measured here: growth of uninfected CEM cells
Method in brief: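 Steps: treat uninfected and HIV-1-infected human CEM cells at five drug levels; quantify growth by soluble formazan; retest any compound reaching 50% protection; classify actives from the retest.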

CC(C)C(Sc1nc(-c2ccccc2)c(-c2ccccc2)[nH]1)C(=O)NNC(=S)Nc1ccccc1 (stereo not given)
EC50: > 51.3 µM
IC50: 24 µM

CCN(CC)CC(=O)Nc1cc(Cl)ccc1OC
EC50: > 200 µM
IC50: 178 µM

C=CCNc1nc2c(s1)C(=O)c1ccccc1C2=O
EC50: > 13.8 µM
IC50: 8.32 µM

Nc1nc(NCCOCP(=O)(O)O)c([N+](=O)[O-])c(=O)[nH]1
EC50: 178 µM
IC50: > 200 µM

CC1(c2ccccc2)OC(=O)c2c1ccc1ccccc21 (stereo not given)
outcome: inactive

COc1ccc(N=N/C(=N/NC(=O)c2cc(Cl)ccc2C(=O)c2ccccc2)c2ccc(N(CCC#N)CCC#N)cc2C)cc1
EC50: > 100 µM
IC50: 14.1 µM

COC(=O)C(Cc1ccc(Oc2cc(CC(NC(=O)c3ccccc3)C(=O)OC)ccc2OC)cc1)NC(=O)c1ccccc1 (stereo not given)
EC50: > 200 µM
IC50: 16.6 µM

CC1CC2C(=O)N(c3ccccc3)C(=O)C2c2[nH]c3ccccc3c21 (stereo not given)
outcome: inactive

O=C(Nc1ccccc1S)c1ccccc1
EC50: 6.76 µM
IC50: 10.5 µM

COc1cc(/C=C/C=C2\CC/C(=C\C=C\c3ccc(O)c(OC)c3)C2=O)ccc1O
EC50: > 200 µM
IC50: 13.2 µM

COC(=O)C1C(=O)C(C(=O)OC)C2(C)C(C(=O)OC)C(=O)C(C(=O)OC)C12C (stereo not given)
EC50: > 89.1 µM
IC50: 81.3 µM

O=C(O)/C=C\Sc1ccccc1C(=O)O
EC50: > 1120 µM
IC50: > 1120 µM

COC(=O)/C(=N\N)C(C(=O)C(=O)Nc1nc(=S)[nH][nH]1)c1nc2ccc([N+](=O)[O-])cc2[nH]c1=O (stereo not given)
EC50: > 75.9 µM
IC50: > 75.9 µM

CCCCC(C(=O)NCCNC(=O)CCC(=O)N(C)O)C(=O)NCCNC(=O)CCC(=O)N(C)O
EC50: > 200 µM
IC50: 112 µM

C/C(=C(/C)c1cc[n+](C)cc1)c1cc[n+](C)cc1
EC50: > 11.2 µM
IC50: > 11.2 µM

O=C(O)c1cc(=O)c2cccc(O)c2[nH]1
EC50: > 200 µM
IC50: > 200 µM

Cn1cc2c(=O)n(OS(=O)(=O)c3ccccc3)c(=O)[nH]c2n1
EC50: > 200 µM
IC50: > 200 µM

O=c1ccn2n1CCCCC2
EC50: > 200 µM
IC50: > 200 µM

CC1CC(C)S(=O)CS1 (stereo not given)
EC50: > 759 µM
IC50: > 759 µM

CCOC(=O)c1c(Cl)nc2ccccc2c1N=[N+]=[N-]
EC50: > 200 µM
IC50: 31.6 µM

CC1CC[C@@]23CCC4(C)[C@@](C=CC5[C@@]6(C)CCC(=O)C(C)(C)C6CC[C@]54C)(OC2=O)[C@@H]3[C@H]1C (stereo not given in full)
outcome: inactive

NC(=O)NNc1nc2ccccc2c(=O)n1NC(=O)C(=O)Nc1ccc(Cl)cc1Cl
EC50: > 79.4 µM
IC50: > 79.4 µM

C=C(C)C1Cc2c(cc(OC)c3c(=O)c4ccccc4n(C)c23)O1 (stereo not given)
EC50: > 22.4 µM
IC50: > 22.4 µM

C/C1=C2\CC(OC3OCC(O)C(O)C3O)C(C)C2C/C=C(/C=O)[C@H]2C[C@@]3(C)CCC(C(C)C)C3CC12 (stereo not given in full)
EC50: > 93.3 µM
IC50: > 93.3 µM

CCOP(=O)(OCC)C1C(CO)OC(n2ccc(=O)[nH]c2=O)C1O (stereo not given)
EC50: > 200 µM
IC50: 74.1 µM

CC(CN(C)C)OCCn1c2c(c3ccccc31)CCCC2 (stereo not given)
EC50: > 200 µM
IC50: 13.5 µM

COc1cc(Oc2nc3ccccc3nc2C(=O)O)cc(OC)c1OC
EC50: > 200 µM
IC50: > 200 µM

O=[N+]([O-])c1ccc(CN=C2NNS(=O)(=O)c3ccccc32)cc1
EC50: > 15.8 µM
IC50: > 15.8 µM

c1cc2c3c(c1)ncn3C[C@@H]1CCCN1C2
EC50: > 295 µM
IC50: > 295 µM

S=c1[nH][nH]c(=S)s1
EC50: 288 µM
IC50: 501 µM

COc1cnnc2c(C)c(-c3ccccc3)nn12
EC50: > 200 µM
IC50: 46.8 µM

COC(=O)N1CC2CC(=O)OCC2[C@@H]1CO (stereo not given in full)
EC50: > 724 µM
IC50: > 724 µM

C=C1C(=O)O[C@@H]2C[C@@H](C)[C@@H]3C=CC(=O)[C@@]3(C)[C@@H](O)[C@H]12
EC50: > 9.55 µM
IC50: 0.513 µM

COC(=O)/C=C\c1ccc2c(c1)CC1(C2)Cc2ccc(/C=C/C(=O)OC)cc2C1 (stereo not given)
EC50: > 200 µM
IC50: > 200 µM

O=P1(NC2CCCC2)OCC2(CO1)COP(=O)(NC1CCCC1)OC2 (stereo not given)
EC50: > 200 µM
IC50: > 200 µM

CN(C)CCCNC(=O)CCNC(=O)c1cc(NC(=O)c2cc(NC(=O)c3cc(NC(=O)c4nc(NC(=O)CCCNC(=O)c5cc(NC(=O)c6cc(NC(=O)c7cc(NC(=O)c8nccn8C)cn7C)cn6C)cn5C)cn4C)cn3C)cn2C)cn1C
EC50: > 141 µM
IC50: 24.5 µM

Cc1nc(C(=O)O)c(C(=O)O)[nH]1
EC50: > 200 µM
IC50: > 200 µM

COc1ccccc1C(=O)[O][Sn]([c]1ccccc1)([c]1ccccc1)[c]1ccccc1
EC50: > 2 µM
IC50: 0.219 µM

CC(=O)NC1C(OCc2ccccc2)OC(CO)C(O)C1OC(C)C(=O)NC(C)C(=O)NC(CCC(=O)NCCCCNc1c2ccccc2nc2cccc([N+](=O)[O-])c12)C(N)=O (stereo not given)
EC50: > 200 µM
IC50: 0.0631 µM

Nc1cc(N)c(N)cc1N
EC50: > 200 µM
IC50: 38 µM

Cn1cc([N+](=O)[O-])cc1C(=O)Nc1ccc(S(=O)(=O)O)c2cc(S(=O)(=O)O)ccc12
EC50: > 501 µM
IC50: > 501 µM

CSc1nc(C(N)=O)c(NC(=O)c2ccccc2)s1
EC50: > 200 µM
IC50: 166 µM

O=C1c2ccccc2C(=O)C1(c1ccccn1)[N+](=O)[O-]
EC50: > 200 µM
IC50: 72.4 µM

COC(=O)CC(CNC(=O)OCc1ccccc1)OCc1ccc(OC)cc1 (stereo not given)
EC50: > 200 µM
IC50: > 200 µM

CC(=O)OC1CCC2(C)C(=CCC3C2CCC2(C)C3CC3N(c4ccccc4)C32C(C)=O)C1 (stereo not given)
EC50: 6.46 µM
IC50: 20 µM

COc1cc(N(CCC#N)CCC#N)ccc1/C(N=Nc1ccc(Cl)cc1)=N/NC(=O)c1cc(Br)ccc1O
EC50: > 100 µM
IC50: 17.4 µM

NCCCNC(=O)c1csc(NC(=O)c2csc(NC(=O)CCCN)n2)n1
EC50: > 437 µM
IC50: 174 µM

COC(=O)Cn1cnc2c(Cl)nc(Nc3ccccc3)nc21
EC50: > 200 µM
IC50: 63.1 µM

CC(=O)Oc1cc(C)c(Cl)c2c(OC(C)=O)cc(C(C)=O)c(O)c12
EC50: > 200 µM
IC50: 49 µM

CCOC(=O)c1c(NC(=O)c2ccccc2)sc2c(=O)oc(-c3ccccc3)nc12
EC50: > 24 µM
IC50: > 24 µM

O=C(CNc1ccc(Cl)cc1Cl)NC1C=Cc2ccc(S(=O)(=O)Nc3ccc(Cl)cc3Cl)cc2C1=O (stereo not given)
EC50: > 200 µM
IC50: > 200 µM

Fc1cccc2c(SCc3ccc(Cl)cc3Cl)cnnc12
EC50: > 15.5 µM
IC50: > 15.5 µM

N#CSCc1ccc(Cl)cc1
EC50: > 28.2 µM
IC50: 16.2 µM

CCOC(=O)C1CC(C(=O)OCC)c2nc3ccccc3nc21 (stereo not given)
EC50: > 8.71 µM
IC50: > 8.71 µM

CC(=O)Oc1cc(/C=C(\C#N)C(=O)NCCCCNC(=O)/C(C#N)=C/c2cc(OC(C)=O)c(OC(C)=O)c(OC(C)=O)c2)cc(OC(C)=O)c1OC(C)=O
EC50: > 200 µM
IC50: 21.9 µM

CN(C)c1cc2ccccc2oc1=O
EC50: > 692 µM
IC50: > 692 µM

Cc1cc(C)nc(NS(=O)(=O)c2ccc(Nc3c4ccccc4nc4c(C(=O)N5CCN(CCO)CC5)ccc(Cl)c34)cc2)n1
EC50: > 34.7 µM
IC50: > 34.7 µM

COc1ccc2c(c1)nc1n2C(c2c(Cl)cccc2Cl)SC1 (stereo not given)
EC50: > 200 µM
IC50: 33.1 µM

COc1ccc2nc(NC(=O)/C(C#N)=C/c3ccccc3)sc2c1
EC50: > 200 µM
IC50: 12 µM

CCCC/S(C)=N/S(=O)(=O)c1ccc(C)cc1 (stereo not given)
EC50: > 200 µM
IC50: > 200 µM

C[N+]1(CCO)C2CCC1CC(O)C2 (stereo not given)
EC50: > 200 µM
IC50: > 200 µM

C1CCOC2(CCC3(CC2)OCCCCO3)OC1
outcome: inactive

CCOC(=O)c1ccc(CS(=O)(=O)c2ccc(C)cc2)c([N+](=O)[O-])c1
EC50: > 100 µM
IC50: > 100 µM

O=C=Nc1cccc(S(=O)(=O)c2cccc(N=C=O)c2)c1
EC50: > 200 µM
IC50: > 200 µM

CCN1N=CSC12C(=O)N(c1ccccc1)C(=O)N2c1ccccc1 (stereo not given)
outcome: inactive

CC1NOC(=O)C1N=Nc1ccccc1Br (stereo not given)
EC50: > 66.1 µM
IC50: 63.1 µM

NC1CC2NC3CCCCC3NC2CC1N (stereo not given)
EC50: > 200 µM
IC50: 27.5 µM

Cc1ccc2c(c1)C1(OC(=O)c3ccccc31)c1ccc(F)cc1O2 (stereo not given)
EC50: > 91.2 µM
IC50: 22.9 µM

Cn1cc(NC(=O)Nc2cc(C(=O)Nc3cc(C(=O)Nc4cc(C(=O)Nc5cc(P(=O)(O)O)c6cccc(P(=O)(O)O)c6c5)n(C)c4)n(C)c3)n(C)c2)cc1C(=O)Nc1cc(C(=O)Nc2cc(C(=O)Nc3cc(P(=O)(O)O)c4cccc(P(=O)(O)O)c4c3)n(C)c2)n(C)c1
EC50: 0.288 µM
IC50: 75.9 µM

CCOC(=O)c1cc(-n2nnc3ccccc32)cn1C
EC50: > 200 µM
IC50: 46.8 µM

CN(C)C(=S)SN(C)C(=O)Nc1ccccc1
EC50: > 200 µM
IC50: 13.2 µM

CSc1nc2c(c(N(C)C)n1)C=Nn1c(nc3ccccc31)S2
EC50: 9.77 µM
IC50: 97.7 µM

NC1=NNC2(C(=O)N1)c1ccccc1-c1ccccc12
EC50: > 200 µM
IC50: 46.8 µM

CCOC(=O)/C(=C\c1cccc([N+](=O)[O-])c1)[Se]c1ccccc1
EC50: > 26.3 µM
IC50: 10.7 µM

O=C1CN(c2ccc(Cl)cc2)C(=O)CN1CCN1CC(=O)N(c2ccc(Cl)cc2)CC1=O
EC50: > 200 µM
IC50: > 200 µM

CN(C)CC1CCC/C(=C\c2ccc(Cl)cc2)C1=O (stereo not given)
EC50: > 20 µM
IC50: 0.977 µM

COC(=O)C(C(=O)C(=O)Nc1ccccc1C(C)=O)c1nc2ccc(Cl)cc2[nH]c1=O (stereo not given)
EC50: > 58.9 µM
IC50: > 58.9 µM

C[s+]1c2ccccc2c2ccccc21
EC50: > 22.9 µM
IC50: 18.6 µM

O=C1N=C(C=c2ccc(=Cc3[nH]c(=O)[nH]c3O)cc2)C(=O)N1
EC50: 132 µM
IC50: > 200 µM

O=C1OC(c2ccccc2)N/C1=C\c1ccc2c(c1)OCO2 (stereo not given)
EC50: > 200 µM
IC50: 69.2 µM

Cc1c(N=O)cc(C(C)C)c(O)c1I
EC50: > 200 µM
IC50: 27.5 µM

Cc1cc(S(=O)(=O)Nc2nnc3c(C(F)(F)F)cc(Cl)cn23)c(S)cc1Cl
EC50: 166 µM
IC50: 170 µM

Cc1ccc(C)c2c1n1c(=O)n(C)c(=O)n21
EC50: > 200 µM
IC50: > 200 µM

CCOC(=O)C(=[N+]=[N-])C(=O)Nc1nn2nnnc2c2ccccc12
EC50: > 200 µM
IC50: > 200 µM

COC(=O)C(=O)C(C(=O)C(=O)Nc1nc(=S)[nH][nH]1)c1nc2ccc([N+](=O)[O-])cc2[nH]c1=O (stereo not given)
EC50: > 282 µM
IC50: > 282 µM
